Experiments:
[1] = tested on: guinea pigs; settings: guinea pig, in vivo
Procedure: (§1) Those tests were performed based on “Toxicity Test Standards for Pharmaceutical Products” disclosed by the Korea Food & Drug Administration.

[2] = tested on: RBL-2H3 cell line; test: Intracellular calcium movement (fura-2 fluorescence); type: cell-based; settings: RBL-2H3 cells, fura-2, FIGS. 1a to 1d
Procedure: First, the following experiment for calcium movement was performed in order to determine whether the above sphingosine kinase activator compounds activate sphingosine-1-phosphate, so as to cause intracellular calcium movement, which is a typical activity specific to sphingosine-1-phosphate.
The sphingosine kinase activator compounds were determined for capability of inducing intracellular calcium movement by using a RBL-2H3 cell line, which is one of the typical cell lines showing intracellular calcium movement. The cells are cultured by using an RPMI 1640 culture medium and the cells were washed simultaneously with removal of the medium. Then, 10 μM of fura-2/Am and 250 μl M of sulfinpyrazone were added thereto, followed by incubation for 30 minutes. Cell pellets were obtained by centrifugal separation and the cell pellets were dispersed in Ca^2+-free Locke's solution. The dispersion was divided into a unit of 1×10^6 cells for use in treating samples. Next, the cells were introduced into a cuvet of a fluorescence microscope, each sphingosine kinase activator compound was added thereto, and intracellular calcium movement was observed by the fluorescence microscope (RF-5310PC, Spectrofluoro photometer, SHIMADZU). When intracellular calcium ions are detected, they cause fluorescence by bonding with fura-2. Therefore, a degree of calcium movement caused by a sample was evaluated by calculating a difference between the measurement of fura-2 ([…]) bonded with calcium and that of non-bonded fura-2 ([…]).

[3] = tested on: rabbits; settings: rabbit, in vivo
Procedure: as §1

[4] = tested on: hairless mouse; type: in vivo; settings: 1.0% in PEG:EtOH=7:3 combined with 0.05% chlobetason-17-propionate, back of hairless mouse, H & E staining
From the text: To evaluate effect of the sphingosine kinase activator upon inhibition of steroid side effects, a steroid was applied to a hairless mouse. Typically, side effects caused by long-term or excessive dose of steroids include skin atrophy expressed by thinning of skin and weakening of skin functions, and a rebound phenomenon including reoccurrence of conditions caused by stopping use of steroids. It is reported that the main cause for such side effects is inhibition of fibroblast activity and a decrease in collagen production (S. Hammer et al., J. Cell. Biochem, 91, 840-851, 2004), Therefore, it is expected that the compound according to the present invention enhances collagen synthesis and differentiation of keratinocytes, and thus inhibits such side effects caused by steroids. To perform a test, a steroid, i.e. 0.05% chlobetason-17-propionate, and […]-5 according to the present invention (1.0% in PEG:EtOH=7:3) were applied to a hairless mouse and changes in the skin were observed. The treating agents were applied to the back of a hairless mouse 9 times per day and the tissue was collected. Then, the epidermis and dermis were observed by carrying out the H & E staining method (hematoxylin and eosin staining) known to one skilled in the art.

[5] = biological target: T1, sphingosine kinase (Mus musculus, UniProt Q8CI15); test: Activation of sphingosine kinase (C17-sphingosine-1-phosphate production, HPLC); type: cell-based; settings: F9-12 cells, 24 hours, 50 μM compound, PMA 300 nM
T1 construct: host or cells: F9-12 cells
Procedure: The following test for activation of sphingosine kinase was performed to determine whether the effects of the above compounds upon intracellular calcium signal transfer as described in Example 1 were caused by activation of sphingosine kinase.
F9-12 cells were treated with 300 nM of PMA ([…]) as positive control, and 50 μM of each of K6PC4 and K6PC-5 for 24 hours and collected. Then, activity of sphingosine kinase was measured as production of C17-sphingosine-1-phosphate based on 50 μg of protein. Sphingosine-1-phospate was extracted from the collected cells by the steps of: (1) treating with trypsin-EDTA, (2) centrifugal separation at 1,500 rpm for 10 minutes, and (3) washing with PBS, followed by freeze-drying. Then, PBS was added to the freeze-dried product and the resultant product was treated with ultrasonic waves to destroy cells. Sphingosine-1-phosphate was determined by HPLC, and OPA (o-phthalaldehyde) reagent and boric acid buffer were added to the extracted sample and the mixture was reacted at room temperature for 20 minutes. For the HPLC quantitive analysis, fluorescence intensity was measured at each wavelength of 340 nm and 455 nm with a solution in 90% acetonitrile, and a ratio to the internal standard was calculated.

[6] = tested on: human subjects
Procedure: In this example, effects of improving wrinkles were evaluated in 32 subjects (average age: 46.7). During the total period of 8 weeks, a cream containing 1% of K6PC-5 and cream containing no K6PC-5 (control) were applied around both eye rims and then instrumental evaluation was performed. A silicone replica for the eye tail part of a subject was formed, and the replica was irradiated with light at an angle. Then, a shading degree formed by wrinkles in the replica was photographed by a CCD camera, and the image was determined for a wrinkling degree by using a computer image analysis system. More particularly, a program of Skin Visiometer SV 600 available from C+K Co. (Germany) was used for determination, wherein wrinkle parameters are expressed as R1 through R5 values. R1, R2 and R3 represent deep wrinkles and R4 and R5 represent shallow wrinkles.

T1 sequence (Q8CI15 1-381 isoform Q8CI15-3): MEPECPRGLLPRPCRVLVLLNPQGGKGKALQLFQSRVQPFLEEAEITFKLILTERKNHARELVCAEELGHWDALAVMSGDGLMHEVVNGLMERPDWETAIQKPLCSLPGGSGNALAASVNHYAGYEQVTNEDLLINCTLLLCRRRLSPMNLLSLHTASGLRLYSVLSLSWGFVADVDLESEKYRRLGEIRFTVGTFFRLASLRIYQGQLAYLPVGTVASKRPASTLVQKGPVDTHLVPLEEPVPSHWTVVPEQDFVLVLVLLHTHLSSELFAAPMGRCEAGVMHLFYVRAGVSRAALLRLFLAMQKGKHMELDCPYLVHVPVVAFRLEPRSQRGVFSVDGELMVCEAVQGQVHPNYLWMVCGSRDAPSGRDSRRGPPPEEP

C17-SIP Production ([5]; non-treated control 51.72): 75.59 pmol/min/mg
increase in production of sphingosine-1-phosphate ([5]; versus non-treated control): about 46%
Structure (SMILES): CCCCCCCC(=O)C(CCCCCC)C(=O)NC(CO)CO (centres unmarked) [K6PC-5, N-(1,3-dihydroxyisopropyl)-2-hexyl-3-oxo-decanamide]
Skin sensitization test result [1]: No irritation
intracellular calcium movement [2]: caused intracellular calcium movement
Ophthalmic mucous membrane irritation test result [3]: No irritation
inhibition of steroid side effects (skin atrophy) [4]: significant inhibition of side effects caused by steroids
improvement in the condition of wrinkles around the eye ([6]; cream containing 1% of K6PC-5, 8 weeks, versus control cream, P<0.05 t-test): statistically significant improvement in the condition of wrinkles
skin irritation or hypersensitive reaction (inspection of dermatologists) ([6]; human, in vivo): no skin irritation or hypersensitive reaction
